{
  "source": "patent US20230416751A1",
  "about": "“MATERIALS AND METHODS FOR TREATING CORNEAL DYSFUNCTION” (UNIVERSITY OF MIAMI, priority 2020, published 2023)",
  "key": {"human CEC [1]": {"test_system": "human CEC", "assay": "Intracellular ROS detection (DCF-DA) in corneal endothelial grafts exposed to TNF-α and IFN-γ", "assay_type": "cell-based", "details": "Ac-YVAD-cmk 30 ng/ml, 48 hours, p<0.001", "procedure": "(§1) Endothelial grafts were isolated from corneal tissue grafts stored in Optisol GS (Bausch & Lomb; Rochester, New York, USA) and transferred to 24-well plates in DMEM/F12 medium (Gibco, Invitrogen Thermo Fisher, Carlsbad, CA, USA) supplemented with 5% fetal bovine serum (Gibco, Invitrogen Thermo Fisher, Carlsbad, CA, USA) and incubated at 37° C. for 48 hours to stabilize the cells following hypothermic storage. Medium was replaced and endothelial grafts were treated with TNF-α (100 ng/ml, R&D Systems, Minneapolis, MN, USA) and IFN-γ (100 ng/ml, Systems, Minneapolis, MN, USA)^34 and were incubated at 37° C. for 48 hours. Caspase-1 inhibitor, Ac-YVAD-cmk (30 ng/ml, InvivoGen, San Diego, CA, USA) was used to inhibit the inflammasome in CEC.\nMeasurement of intracellular ROS levels was performed using a 2,7-dichlorofluorescein diacetate (DCF-DA) Cellular Reactive Oxygen Species Detection Assay Kit (Abcam, Cambridge, UK) according to the manufacturer's instructions as described in^36. Endothelial grafts were incubated with 10 μM DCF-DA at 37° C. for 45 min. Then, ROS level was determined by measuring the fluorescence intensity using a microplate reader (SpectraMax iD3, Molecular Device, San Jose, CA, USA) with excitation and emission wavelengths set at 485 and 535 nm, respectively. Tert-butyl hydrogen peroxide (TBHP) was used as the positive control. […]"}, "IL-1β": {"test_system": "IL-1β", "assay": "IL-1β ELISA in human corneal endothelial grafts exposed to TNF-α and IFN-γ", "assay_type": "cell-based", "details": "Ac-YVAD-cmk 30 ng/ml, TNF-α 100 ng/ml + IFN-γ 100 ng/ml, 48 hours; vs exposed grafts", "procedure": "as §1\n(§2) To study the expression of inflammasome signaling proteins in endothelial grafts, cells were treated with TNF-α and IFN-γ for 48 hours. Treated endothelial grafts were placed on […] of lysis buffer with protease inhibitor cocktail (Sigma) and Caspase-1 and […] levels were measure by SimpleStep ELISA™ kit (Abcam; Cambridge, UK) according to the manufacturer's instructions. Caspase-1 and IL-1β protein levels were determined by measuring the fluorescence intensity using a microplate reader (SpectraMax iD3, Molecular Device, San Jose, CA, USA) with excitation and emission wavelengths set at 485 and 535 nm, respectively. […]"}, "GSDM-D": {"test_system": "GSDM-D", "assay": "GSDM-D immunofluorescence in corneal endothelial grafts exposed to TNF-α and IFN-γ", "assay_type": "cell-based, human", "details": "Ac-YVAD-cmk, TNF-α 100 ng/ml + IFN-γ 100 ng/ml, 48 hours", "procedure": "as §1\n(§3) Endothelial grafts were fixed with 4% paraformaldehyde for 10 minutes at room temperature and washed with PBS. For immunofluorescence staining, samples were permeabilized with 0.3% Triton X-100 in PBS for 15 minutes and blocked with Image-iT FX signal enhancer (Invitrogen ThermoFisher Scientific; Carlsbad, CA, USA) for 30 minutes at room temperature. Isotype-matched nonspecific IgG antibodies were used as controls. […] Stained samples were examined using an inverted fluorescence microscope (BZ-X800 Analyzer, KEYENCE, Osaka, Japan). Images were analyzed using BZ-X-Analyzer software (KEYENCE, Osaka, Japan)."}, "caspase-1 [2]": {"test_system": "caspase-1", "assay": "Caspase-1 immunofluorescence in corneal endothelial grafts exposed to TNF-α and IFN-γ", "assay_type": "cell-based, human", "details": "Ac-YVAD-cmk 30 ng/ml, TNF-α 100 ng/ml + IFN-γ 100 ng/ml, 48 hours", "procedure": "as §1, §3"}, "caspase-1 [3]": {"test_system": "caspase-1", "assay": "siRNA inflammasome inhibitor in vitro assay: caspase-1 SimpleStep ELISA in HCEC-B4G12 cells", "assay_type": "cell-based, human", "details": "HCEC-B4G12, YVAD 30 ng/ml, TNFα and INFγ, 72 hours; vs positive control cells treated only with TNFα and INFγ", "procedure": "HCEC-B4G12 (Human Corneal Endothelial Cell Line) cells were obtained from Leibniz Institute DSMZ and maintained in Endothelial SFM supplemented with FGF 10 ng/ml in a humidified incubator under an atmosphere of 5% CO2/95% air at 37° C. For transfection, cells were seeded in 12 well culture plates until cultures reached 95-100% confluence. The cells were then transfected with 1 μM ASC siRNAs using siPORT NeoFX Transfection Agent (Invitrogen) following the manufacturer protocol.\nTransfection efficiency was estimated by assessing the amount of Block-it Alexa Fluor green fluorescent oligonucleotide (Invitrogen) present inside cells in control cultures 24 and 72 hours after transfection. […] Following the 72 hours treated endothelial cells were placed on 150 μL of lysis buffer with protease inhibitor cocktail (Sigma), and caspase-1 levels were measured by SimpleStep ELISA™ kit (Abcam; Cambridge, UK) according to the manufacturer's instructions. Caspase-1 protein levels were determined by measuring the fluorescence intensity using a microplate reader (SpectraMax iD3, Molecular Device, San Jose, CA, USA) with excitation and emission wavelengths set at 485 and 535 nm, respectively. […]\nCaspase-1 levels were analyzed by SimpleStep ELISA after 72 hours of treatment with either YVAD (30 ng/ml) or ASC siRNA (1 μM) transfection, both sets of cells underwent inflammation induction with TNFα and INFγ. […]"}, "caspase-1 [4]": {"test_system": "caspase-1", "assay": "Caspase-1 ELISA in human corneal endothelial grafts exposed to TNF-α and IFN-γ", "assay_type": "cell-based", "details": "Ac-YVAD-cmk 30 ng/ml, TNF-α 100 ng/ml + IFN-γ 100 ng/ml, 48 hours; vs exposed and control non-exposed grafts, p<0.0001", "procedure": "as §1, §2"}, "human CEC [5]": {"test_system": "human CEC", "assay": "Lactate dehydrogenase (LDH) release assay in corneal endothelial grafts exposed to TNF-α and IFN-γ", "assay_type": "cell-based", "details": "supernatant of grafts exposed to TNF-α and IFN-γ, Ac-YVAD-cmk 30 ng/ml, 48 hours; p<0.05", "procedure": "as §1\nCytotoxicity of CEC after TNF-α, IFN-γ treatment was assessed by LDH release assay. LDH release assay was measure using a CytoTox 96® Non-Radioactive Cytotoxicity Assay kit (Promega, Madison, WI, USA) performed according to the manufacturer's instructions as described in^35. The absorbance was measured using a microplate reader (SpectraMax iD3, Molecular Device, San Jose, CA, USA) with excitation and emission wavelengths set at 490 nm."}},
  "data": [
    {"substance": "Ac-YVAD-cmk", "values": [
      {"measurement": "ROS levels", "setting": "human CEC [1]", "value": "significantly downregulated"},
      {"measurement": "IL-1β levels (ELISA)", "setting": "IL-1β", "value": "did not show significantly lower levels of IL-1β"},
      {"measurement": "intracellular (cytoplasmic) immunoreactivity of GSDM-D", "setting": "GSDM-D", "value": "inhibited"},
      {"measurement": "caspase-1 expression (immunofluorescence)", "setting": "caspase-1 [2]", "value": "lower expression of caspase-1"},
      {"measurement": "decrease of caspase-1 levels", "setting": "caspase-1 [3]", "value": "about 41%"},
      {"measurement": "caspase-1 levels (ELISA)", "setting": "caspase-1 [4]", "value": "significantly lower levels of caspase-1"},
      {"measurement": "LDH levels (LDH release, cell death)", "setting": "human CEC [5]", "value": "significantly downregulated"}
    ]}
  ]
}
